Source: patent US4612321A, “5-pyridyl-1,3-thiazole derivatives” (Takeda Chemical Industries, Inc., priority 1983, dated 1986)

What was measured:
[1] = tested on: thromboxane A2 (TXA2) synthetase; assay: thromboxane A2 (TXA2) synthetase inhibiting action; assay type: biochemical; details: statement in words, no test data
[2] = tested on: Phenylquinone writhing syndrome; assay: Analgesic action: Phenylquinone writhing syndrome (P.Q. Method); assay type: in vivo, mice (Slc:ICR, male); details: for analgesic action: statement in words; for P.Q. Method (inhibitory effect on writhing and stretching): mouse, oral, 30 minutes before phenylquinone
Description: B. Analgesic action: Phenylquinone writhing syndrome (P.Q. Method)
The test was conducted by following the method Siegmund et al. [Proc. Soc. exp. Biol. Med. 95, 729 (1957).] employing a group [ten Slc:ICR mice (male, 4-weeks old, weighing 20±2 g)]. Test compounds were administered orally 30 minutes before intraperitoneal injection of 0.02% phenylquinone by 0.1 ml/body weight of 10 g. Then, the frequency of responses, i.e. writhing and stretching was counted in each animal for 20 minutes. The average frequencies in the test group and the control group were compared, and an inhibitory effect of the compounds on this response was determined.

[3] = tested on: Water-immersion stress-induced gastric ulcer; assay: Water-immersion stress-induced gastric ulcer (W.I. Method); assay type: in vivo, rats (SD, male); details: for anti-ulcer action: statement in words; for W.I. Method (inhibition ratio of ulcer index): rat, 50 mg/kg, 23° C. water immersion for five hours
Description: C. Water-immersion stress-induced gastric ulcer (W.I. Method)
Male SD rats (7-weeks old, weighing 190-240 g) were used after a 24 hr. fast in groups of six animals. According to the method of Takagi and Okabe [Jpn. J. Pharmacol., 18, 9 (1968)], the animals were placed in a stress cage made of stainless steel and immersed vertically to the level of xiphoid process in a water bath maintained at 23° C. for five hours. The length (mm) of individual lesions in fundic mucosa was measured under a dissecting microscope with a 1-mm square-grid eye piece (X10), and the sum of the length of individual lesions for each stomach was used as an ulcer index. The ulcer index of the test group was compared with that of the control group, and the inhibition ratio was calculated.

anti-pyretic action = assay type: in vivo; details: statement in words, no test data
platelet aggregation = platelet aggregation controlling (inhibiting) action; assay type: cell-based; details: statement in words, no test data
[4] = tested on: Carrageenin edema (right-hind paw); assay: Anti-inflammatory activity; Carrageenin edema (C.E. Method); assay type: in vivo, rats (Jcl: SD, male); details: rat, oral, 1 h before carrageenin; edema measured 3 hr later; dose not given
Description: A. Anti-inflammatory activity; Carrageenin edema (C.E. Method)
The anti-inflammatory activities of test compounds were estimated in a group [Six Jcl: SD rats (male, weighing 180-220 g)] by the method of Winter et al. [Proc. Soc. Exp. Biol. 111, 544 (1962)].
After measuring the volume of the right-hind paw (a), the rats were given orally 5 ml of water. One hour after oral administration of the test compounds, 0.05 ml each of a 1% carrageenin solution in physiological saline was subcutaneously injected at the sole of right-hind paw. Three hr. later, the volume of the right-hind paw was measured (b). The volume of edema was obtained from the difference […] between the two volumes. By comparing the volume of edema of the group, to which test compound was administered, with that of the group, to which no test compound was administered, an inhibitory effect of the compound on the edema was determined.

mice = assay: Acute toxicity Test in mice; assay type: in vivo, mice (ICR, male); details: mouse, oral, 500 mg/kg, one week, groups of five
Description: D. Acute toxicity Test in mice
Five-weeks old ICR-male mice were used in groups of five animals. Each animal was orally administered with 500 mg/kg of each test compound. Then, during the subsequent one week, the number of dead animals was counted.

SMILES | analgesic action [2] | anti-ulcer action [3] | anti-pyretic action (anti-pyretic action) | C.E. Method (inhibitory effect on the carrageenin edema) [4] | W.I. Method (inhibition ratio of ulcer index) [3] | Acute Toxicity (number of dead animals / animals) (mice) | P.Q. Method (inhibitory effect on writhing and stretching) ([2]; 50 mg/kg) | further results
O=C(O)CCCc1nc(-c2ccccc2)c(-c2cccnc2)s1 | – | – | – | – | – | – | – | thromboxane synthetase inhibiting action [1]: particularly excellent
COc1ccc(-c2nc(N)sc2-c2cccnc2)cc1 [2-amino-4-(4-methoxyphenyl)-5-(3-pyridyl)-1,3-thiazole] | particularly excellent | particularly excellent | particularly excellent | – | – | – | – | –
COc1ccc(-c2nc(C3CCCCC3)sc2-c2cccnc2)cc1 [2-cyclohexyl-4-(4-methoxyphenyl)-5-(3-pyridyl)-1,3-thiazole] | – | – | – | – | – | – | – | platelet aggregation controlling action (platelet aggregation): partienlarly excellent
c1ccc(-c2nc(C3CCCCC3)sc2-c2cccnc2)cc1 [2-cyclohexyl-4-phenyl-5-(3-pyridyl)-1,3-thiazole] | – | – | – | – | – | – | – | platelet aggregation controlling action (platelet aggregation): partienlarly excellent
CCc1nc(-c2ccc(OC)cc2)c(-c2cccnc2)s1 [2-ethyl-4-(4-methoxyphenyl)-5-(3-pyridyl)-1,3-thiazole] | particularly excellent | particularly excellent | particularly excellent | – | – | – | – | –
CCNc1nc(-c2ccc3c(c2)OCO3)c(-c2cccnc2)s1 [2-ethylamino-4-(3,4-methylenedioxyphenyl)-5-(3-pyridyl)-1,3-thiazole] | particularly excellent | particularly excellent | particularly excellent | – | – | – | – | –
CCNc1nc(-c2ccc3c(c2)CCC3)c(-c2cccnc2)s1 [2-ethylamino-4-(5-indanyl)-5-(3-pyridyl)-1,3-thiazole] | particularly excellent | particularly excellent | particularly excellent | – | – | – | – | –
CNc1nc(-c2ccc3c(c2)OCO3)c(-c2cccnc2)s1 [2-methylamino-4-(3,4-methylenedioxyphenyl)-5-(3-pyridyl)-1,3-thiazole] | particularly excellent | particularly excellent | particularly excellent | – | – | – | – | –
COc1ccc(-c2nc(-c3ccccc3)sc2-c2cccnc2)cc1 [2-phenyl-4-(4-methoxyphenyl)-5-(3-pyridyl)-1,3-thiazole] | – | – | – | – | – | – | – | platelet aggregation controlling action (platelet aggregation): partienlarly excellent
CNc1nc(-c2ccc(OC)cc2)c(-c2cccnc2)s1 [Compound No. 1, 4-(4-methoxyphenyl)-2-methylamino-5-(3-pyridyl)-1,3-thiazole] | particularly excellent | particularly excellent | particularly excellent | 60 | 86 | 0/5 | – | P.Q. Method (inhibitory effect on writhing and stretching) ([2]; 25 mg/kg): 96.8
Nc1nc(-c2ccccc2)c(-c2cccnc2)s1 [Compound No. 4] | – | – | – | 63.7 | 74 | 0/5 | 78.9 | –
COc1ccc(-c2nc(N)sc2-c2cccnc2)cc1 [compound 2, 2-amino-4-(4-methoxyphenyl)-5-(3-pyridyl)-1,3-thiazole] | – | – | – | 77.1 | 70 | 0/5 | 52.6 | –
Nc1nc(-c2ccc(O)cc2)c(-c2cccnc2)s1 [compound 9] | – | – | – | 16.9 | 71 | 0/5 | 40.5 | –
Nc1nc(-c2ccccc2)c(-c2ccccn2)s1 [compound 13] | – | – | – | 7.0 | 66 | 0/5 | 67.5 | –
COc1ccc(-c2nc(N)sc2-c2ccncc2)cc1 [compound 17] | – | – | – | 48.2 | 79 | 0/5 | 80.7 | –
COc1ccc(-c2nc(-c3ccccc3)sc2-c2cccnc2)cc1 [compound 28, 2-phenyl-4-(4-methoxyphenyl)-5-(3-pyridyl)-1,3-thiazole] | – | – | – | 15.7 | 33 | 0/5 | 63.3 | –
COc1ccc(-c2nc(CCCC(=O)O)sc2-c2cccnc2)cc1 [compound 43, 2-(3-carboxypropyl)-4-(4-methoyphenyl)-5-(3-pyridyl)-1,3-thiazole] | – | – | – | – | – | – | – | thromboxane synthetase inhibiting action [1]: particularly excellent
CNc1nc(-c2ccc3c(c2)CCC3)c(-c2cccnc2)s1 [compound 79, 4-(5-indanyl)-2-methylamino-5-(3-pyridyl)-1,3-thiazole] | particularly excellent | particularly excellent | particularly excellent | – | – | – | – | –
